According to patent US10875876B2, “Cyclized sulfamoylarylamide derivatives and the use thereof as medicaments for the treatment of hepatitis B” (priority 2015, dated 2020):
Where two headings read alike, the source gives them in different places.

Columns and labels:
HBV = test: anti HBV activity, HepG2.117 cell line, intracellular HBV DNA by realtime PCR; format: cell-based; details: HepG2.117 cell line (Tet-off), 3 days of treatment, intracellular HBV DNA quantified by realtime PCR, read-out: HBV-AVE-HepG2.117 EC50
Method in brief: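 HepG2.117 cells, a Tet-off line that replicates HBV without doxycycline, were induced and then treated in duplicate with serially diluted compound. After 3 days, intracellular HBV DNA was quantified by real-time PCR with an HBV-specific primer set and probe.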

[1] = Cytotoxicity in HepG2 cells, Resazurin assay; details: human, HepG2 cells, TOX-HepG2-4 d CC50 (μM), HepG2 cells incubated for 4 days, viability by Resazurin assay
[2] = Hepatitis B virus, HepG2.117, 72 h

SMILES	EC50 (HBV; [2]) [nM]	CC50 at 4 days [1] [µM]	EC50 (HBV) [nM]
CC(C)[C@H]1Oc2c(cn(C)c2C(=O)Nc2ccc(F)c(F)c2)S(=O)(=O)N[C@@H]1CO [compound 240]	> 250	> 25	
Cc1cc(NC(=O)c2c3c(cn2C)S(=O)(=O)N[C@@H](C)C=C3)ccc1F (single isomer, unassigned) [Compound 31, (*S)—N-(4-fluoro-3-methyl-phenyl)-3,7-dimethyl-1,1-dioxo-2,3-dihydropyrrolo[3,4-f]thiazepine-6-carboxamide]	9	> 25	
Cn1cc2c(c1C(=O)Nc1ccc(F)c(F)c1)OCC(C1CCN(CC(F)(F)F)CC1)NS2(=O)=O (stereo not drawn) [Compound 78, N-(3,4-difluorophenyl)-7-methyl-1,1-dioxo-3-[1-(2,2,2-trifluoroethyl)-4-piperidyl]-3,4-dihydro-2H-pyrrolo[3,4-b][1,4,5]oxathiazepine-6-carboxamide]	56	> 25	
CC1/C=C\Cc2c(cn(C)c2C(=O)Nc2ccc(F)c(F)c2)S(=O)(=O)N1 (stereo not drawn) [Compound 5, (4Z)—N-(3,4-difluorophenyl)-3,8-dimethyl-1,1-dioxo-3,6-dihydro-2H-pyrrolo[3,4-g]thiazocine-7-carboxamide]	180	> 25	
CC1Cc2c(cn(C)c2C(=O)Nc2ccc(F)c(F)c2)S(=O)(=O)N1 (stereo not drawn) [Compound 11, N-(3,4-difluorophenyl)-3,6-dimethyl-1,1-dioxo-3,4-dihydro-2H-pyrrolo-[3,4-e]thiazine-5-carboxamide]	77	> 25	
Cn1cc2c(c1C(=O)Nc1ccc(F)c(F)c1)OCC1(CCN(Cc3ccccc3)C1)NS2(=O)=O (stereo not drawn) [Compound 216, 1′-benzyl-N-(3,4-difluorophenyl)-7-methyl-1,1-dioxo-spiro[2,4-dihydropyrrolo[3,4-b][1,4,5]oxathiazepine-3,3′-pyrrolidine]-6-carboxamide]	34	> 25	
Cn1cc2c(c1C(=O)Nc1ccc(F)c(C(F)F)c1)CCC1(COC1)NS2(=O)=O [Compound 137, N-[3-(difluoromethyl)-4-fluoro-phenyl]-7-methyl-1,1-dioxo-spiro[4,5-dihydro-2H-pyrrolo[3,4-f]thiazepine-3,3′-oxetane]-6-carboxamide]	6	> 25	
Cn1cc2c(c1C(=O)Nc1cc(F)c(F)c(F)c1)C=CC1(COC1)NS2(=O)=O [Compound 143, 7-methyl-1,1-dioxo-N-(3,4,5-trifluorophenyl)spiro[2H-pyrrolo[3,4-f]thiazepine-3,3′-oxetane]-6-carboxamide]	24	> 25	
Cn1cc2c(c1C(=O)Nc1ccc(F)c(C#N)c1)C=CC(C(F)F)NS2(=O)=O (stereo not drawn) [Compound 189, N-(3-cyano-4-fluoro-phenyl)-3-(difluoromethyl)-7-methyl-1,1-dioxo-2,3-dihydropyrrolo[3,4-f]thiazepine-6-carboxamide]	110	> 25	
Cc1cc(NC(=O)c2c3c(cn2C)S(=O)(=O)N[C@@H](C(C)(C)O)CO3)ccc1F [Compound 195, (3R)—N-(4-fluoro-3-methyl-phenyl)-3-(1-hydroxy-1-methyl-ethyl)-7-methyl-1,1-dioxo-3,4-dihydro-2H-pyrrolo[3,4-b][1,4,5]oxathiazepine-6-carboxamide]	7	> 25	
C[C@@H](O)[C@H]1C=Cc2c(cn(C)c2C(=O)Nc2ccc(F)c(F)c2)S(=O)(=O)N1 [Compound 69, (3R)—N-(3,4-difluorophenyl)-3-[(1R)-1-hydroxyethyl]-7-methyl-1,1-dioxo-2,3-dihydropyrrolo[3,4-f]thiazepine-6-carboxamide]	33	> 25	
Cc1cc(CC2(C)COc3c(cn(C)c3C(=O)Nc3ccc(F)c(C(F)F)c3)S(=O)(=O)N2)n(C)n1 (racemic) [Compound 176, N-[3-(difluoromethyl)-4-fluoro-phenyl]-3-[(2,5-dimethylpyrazol-3-yl)methyl]-3,7-dimethyl-1,1-dioxo-2,4-dihydropyrrolo[3,4-b][1,4,5]oxathiazepine-6-carboxamide]	4	> 25	
C[C@H](O)[C@H]1COc2c(cn(C)c2C(=O)Nc2ccnc(C(F)F)c2)S(=O)(=O)N1 [Compound 77, (3R)—N-[2-(difluoromethyl)-4-pyridyl]-3-[(1S)-1-hydroxyethyl]-7-methyl-1,1-dioxo-3,4-dihydro-2H-pyrrolo[3,4-b][1,4,5]oxathiazepine-6-carboxamide]	230	> 25	
Cn1cc2c(c1C(=O)Nc1cc(F)c(F)c(F)c1)OCC(C)(CO)NS2(=O)=O (single isomer, unassigned) [Compound 214a, 3-(hydroxymethyl)-3,7-dimethyl-1,1-dioxo-N-(3,4,5-trifluorophenyl)-2,4-dihydropyrrolo[3,4-b][1,4,5]oxathiazepine-6-carboxamide]		> 25	120
Cn1cc2c(c1C(=O)Nc1ccc(F)c(F)c1)OCC(C)(c1cnccn1)NS2(=O)=O (racemic) [Compound 145, N-(3,4-difluorophenyl)-3,7-dimethyl-1,1-dioxo-3-pyrazin-2-yl-2,4-dihydropyrrolo[3,4-b][1,4,5]oxathiazepine-6-carboxamide]	37	> 25	
C[C@H]1CCc2c(cn(C)c2C(=O)Nc2ccc(F)c(C#N)c2)S(=O)(=O)N1 (single isomer, unassigned) [Compound 56, (3*S)—N-(3-cyano-4-fluoro-phenyl)-3,7-dimethyl-1,1-dioxo-2,3,4,5-tetrahydropyrrolo[3,4-f]thiazepine-6-carboxamide]	10	> 25	
Cn1cc2c(c1C(=O)Nc1ccc(F)c(C#N)c1)CCC(C(F)(F)F)NS2(=O)=O (single isomer, unassigned) [Compound 60a, N-(3-cyano-4-fluoro-phenyl)-7-methyl-1,1-dioxo-3-(trifluoromethyl)-2,3,4,5-tetrahydropyrrolo[3,4-f]thiazepine-6-carboxamide]		> 25	55
C[C@H](O)[C@H]1CCc2c(cn(C)c2C(=O)Nc2cc(F)c(F)c(F)c2)S(=O)(=O)N1 [Compound 104, (3R)-3-[(1S)-1-hydroxyethyl]-7-methyl-1,1-dioxo-N-(3,4,5-trifluorophenyl)-2,3,4,5-tetrahydropyrrolo[3,4-f]thiazepine-6-carboxamide]	7	> 25	
CC1CCc2c(cn(C)c2C(=O)Nc2ccc(F)c(F)c2)S(=O)(=O)N1 (single isomer, unassigned) [Compound 10a, N-(3,4-difluorophenyl)-3,7-dimethyl-1,1-dioxo-2,3,4,5-tetrahydropyrrolo[3,4-f]thiazepine-6-carboxamide]		> 25	220
Cn1cc2c(c1C(=O)Nc1ccc(F)c(F)c1)OCC(C)(Cc1ccc(Cl)nc1)NS2(=O)=O (stereo not drawn) [Compound 197, 3-[(6-chloro-3-pyridyl)methyl]-N-(3,4-difluorophenyl)-3,7-dimethyl-1,1-dioxo-2,4-dihydropyrrolo[3,4-b][1,4,5]oxathiazepine-6-carboxamide]	11	> 25	
Cn1cc2c(c1C(=O)Nc1ccc(F)c(F)c1)CCC1(COC1)NS2(=O)=O [Compound 131, N-(3,4-difluorophenyl)-7-methyl-1,1-dioxo-spiro[4,5-dihydro-2H-pyrrolo[3,4-f]thiazepine-3,3′-oxetane]-6-carboxamide]	23	> 25	
C[C@H](O)[C@H]1C=Cc2c(cn(C)c2C(=O)Nc2ccc(F)c(C#N)c2F)S(=O)(=O)N1 [Compound 178, (3R)—N-(3-cyano-2,4-difluoro-phenyl)-3-[(1S)-1-hydroxyethyl]-7-methyl-1,1-dioxo-2,3-dihydropyrrolo[3,4-f]thiazepine-6-carboxamide]	16	> 25	
CCC(O)[C@@H]1COc2c(cn(C)c2C(=O)Nc2ccc(F)c(C(F)F)c2)S(=O)(=O)N1 (single isomer, unassigned) [Compound 144a, N-[3-(difluoromethyl)-4-fluoro-phenyl]-3-(1-hydroxypropyl)-7-methyl-1,1-dioxo-3,4-dihydro-2H-pyrrolo[3,4-b][1,4,5]oxathiazepine-6-carboxamide]		> 25	19
CCC(O)[C@H]1COc2c(cn(C)c2C(=O)Nc2ccc(F)c(C(F)F)c2)S(=O)(=O)N1 (stereo partly drawn) [Compound 124a, (3R)—N-[3-(difluoromethyl)-4-fluoro-phenyl]-3-(1-hydroxypropyl)-7-methyl-1,1-dioxo-3,4-dihydro-2H-pyrrolo[3,4-b][1,4,5]oxathiazepine-6-carboxamide]	5	> 25	
Cn1cc2c(c1C(=O)Nc1cc(F)c(F)c(F)c1)CCC(C(C)(C)O)NS2(=O)=O (single isomer, unassigned) [Compound 149a, 3-(1-hydroxy-1-methyl-ethyl)-7-methyl-1,1-dioxo-N-(3,4,5-trifluorophenyl)-2,3,4,5-tetrahydropyrrolo[3,4-f]thiazepine-6-carboxamide]		> 25	> 125
Cn1cc2c(c1C(=O)Nc1ccc(F)c(F)c1)C=CC1(COC1)NS2(=O)=O [Compound 132, N-(3,4-difluorophenyl)-7-methyl-1,1-dioxo-spiro[2H-pyrrolo[3,4-f]-thiazepine-3,3′-oxetane]-6-carboxamide]	19	> 25	
CC1CNc2c(cn(C)c2C(=O)Nc2ccc(F)c(F)c2)S(=O)(=O)N1 (stereo not drawn) [Compound 67, N-(3,4-difluorophenyl)-3,7-dimethyl-1,1-dioxo-2,3,4,5-tetrahydropyrrolo[3,4-f][1,2,5]thiadiazepine-6-carboxamide]	69	> 25	
